This data set can be described thus: Solid-liquid equilibrium temperature. The following applies: Crystal.

Data on four compounds can be found in the NIST ThermoML archive (doi:10.1021/je700276z).

The structures appear in SMILES notation. Numbers after ± are expanded uncertainties.

With `c1ccccc1` [benzene], the Solid-liquid equilibrium temperature by setting is: (100000 kPa) 306.44 ± 1.6 K; (200000 kPa) 329.93 ± 1.8 K; (300000 kPa) 351.25 ± 2 K; (400000 kPa) 370.85 ± 2.2 K; (500000 kPa) 389.07 ± 2.3 K; (600000 kPa) 406.15 ± 2.5 K. Also, the Solid-liquid equilibrium temperature by setting is: (700000 kPa) 422.25 ± 2.6 K; (800000 kPa) 437.52 ± 2.8 K; (900000 kPa) 452.06 ± 2.9 K; (1000000 kPa) 465.96 ± 3.1 K; (1500000 kPa) 538.73 ± 10 K; (2000000 kPa) 584.85 ± 10 K. For the same compound, the Solid-liquid equilibrium temperature stood at 625.73 ± 10 K (2500000 kPa) and 663.67 ± 10 K (3000000 kPa).
Take `Brc1ccccc1` [bromobenzene]: the Solid-liquid equilibrium temperature is, setting by setting: (100000 kPa) 259.05 ± 1.3 K; (200000 kPa) 276.45 ± 1.5 K; (300000 kPa) 292.45 ± 1.7 K; (400000 kPa) 310.05 ± 1.8 K; (500000 kPa) 322.55 ± 1.9 K; (600000 kPa) 336.15 ± 2 K. In addition, the Solid-liquid equilibrium temperature stood at 349.25 ± 2.2 K (700000 kPa); 361.85 ± 2.3 K (800000 kPa); 374.75 ± 2.4 K (900000 kPa); 382.85 ± 10 K (1000000 kPa); 430.05 ± 10 K (1500000 kPa); 473.67 ± 10 K (2000000 kPa). Further, the Solid-liquid equilibrium temperature is reported as 514.22 ± 10 K (2500000 kPa), 553.94 ± 10 K (3000000 kPa) and 587.21 ± 10 K (3500000 kPa).
As to `Clc1ccccc1` [chlorobenzene], the Solid-liquid equilibrium temperature turned out to be 246.4 ± 1.2 K (100000 kPa); 263.03 ± 1.4 K (200000 kPa); 273.46 ± 1.5 K (300000 kPa); 288.44 ± 1.7 K (400000 kPa); 301.03 ± 1.8 K (500000 kPa); 315.62 ± 1.9 K (600000 kPa). For the same compound, the Solid-liquid equilibrium temperature is given as 325.56 ± 2 K (700000 kPa); 336.87 ± 2.1 K (800000 kPa); 348.81 ± 2.2 K (900000 kPa); 354.76 ± 10 K (1000000 kPa); 403.44 ± 10 K (1500000 kPa); 440.81 ± 10 K (2000000 kPa). In addition, the Solid-liquid equilibrium temperature (2500000 kPa) turned out to be 473.28 ± 10 K, the Solid-liquid equilibrium temperature (3000000 kPa) was determined as 503.63 ± 10 K and the Solid-liquid equilibrium temperature (3500000 kPa) stood at 530.87 ± 10 K.
As for `O=[N+]([O-])c1ccccc1` [nitrobenzene], the Solid-liquid equilibrium temperature came out at 299.74 ± 1.5 K (100000 kPa); 320.77 ± 1.7 K (200000 kPa); 340.02 ± 1.9 K (300000 kPa); 360.41 ± 2.1 K (400000 kPa); 378.61 ± 2.3 K (500000 kPa); 395.9 ± 2.4 K (600000 kPa). For the same compound, the Solid-liquid equilibrium temperature worked out at 412.3 ± 2.6 K (700000 kPa); 427.24 ± 2.7 K (800000 kPa); 442.98 ± 2.9 K (900000 kPa); 462.61 ± 10 K (1000000 kPa); 516.38 ± 10 K (1500000 kPa); 565.62 ± 10 K (2000000 kPa). For the same compound, the Solid-liquid equilibrium temperature is on record as 595.88 ± 10 K (2500000 kPa) and 614.38 ± 10 K (3000000 kPa).
